# ChEMBL document CHEMBL2413072, “Synthesis and in vitro anticancer studies of novel C-2 arylidene congeners of lantadenes” (2013)
# Experiments:
# Type in all cases: functional
# HT-29 = test: Growth inhibition of human HT-29 cells by sulforhodamine B assay
# KM12 = test: Growth inhibition of human KM12 cells assessed as cell growth at 10^-4 M by sulforhodamine B assay; conditions: read-out: Activity
# OVCAR-3 = test: Growth inhibition of human OVCAR3 cells assessed as cell growth at 10^-8 M by sulforhodamine B assay; conditions: read-out: Activity
# NCI-H23 = test: Growth inhibition of human NCI-H23 cells assessed as cell growth at 10^-8 M by sulforhodamine B assay; conditions: read-out: Activity
# A498 = test: Growth inhibition of human A498 cells assessed as cell growth at 10^-4 M by sulforhodamine B assay; conditions: read-out: Activity
# MDA-MB-468 [1] = test: Growth inhibition of human MDA-MB-468 cells assessed as cell growth at 10^-4 M by sulforhodamine B assay; conditions: read-out: Activity
# SN12C = test: Growth inhibition of human SN12C cells assessed as cell growth at 10^-8 M by sulforhodamine B assay; conditions: read-out: Activity
# CCRF-CEM [2] = test: Growth inhibition of human CCRF-CEM cells assessed as cell growth at 10^-6 M by sulforhodamine B assay; conditions: read-out: Activity
# SF-268 = test: Growth inhibition of human SF268 cells assessed as cell growth at 10^-4 M by sulforhodamine B assay; conditions: read-out: Activity
# NCI-H522 = test: Growth inhibition of human NCI-H522 cells assessed as cell growth at 10^-4 M by sulforhodamine B assay; conditions: read-out: Activity
# HCT-116 = test: Growth inhibition of human HCT116 cells assessed as cell growth at 10^-8 M by sulforhodamine B assay; conditions: read-out: Activity
# K562 = test: Growth inhibition of human K562 cells assessed as cell growth at 10^-4 M by sulforhodamine B assay; conditions: read-out: Activity
# NCI-H226 [3] = test: Growth inhibition of human NCI-H226 cells assessed as cell growth at 10^-4 M by sulforhodamine B assay; conditions: read-out: Activity
# RXF 393 = test: Growth inhibition of human RXF393 cells assessed as cell growth at 10^-6 M by sulforhodamine B assay; conditions: read-out: Activity
# OVCAR-5 = test: Growth inhibition of human OVCAR5 cells assessed as cell growth at 10^-6 M by sulforhodamine B assay; conditions: read-out: Activity
# [4] = Growth inhibition of human Hs 578T cells assessed as cell growth at 10^-6 M by sulforhodamine B assay; conditions: read-out: Activity
# SW-620 [5] = test: Growth inhibition of human SW620 cells assessed as cell growth at 10^-8 M by sulforhodamine B assay; conditions: read-out: Activity
# [6] = Growth inhibition of human NCI-ADR-RES cells assessed as cell growth at 10^-7 M by sulforhodamine B assay; conditions: read-out: Activity
# HCT-15 = test: Growth inhibition of human HCT15 cells assessed as cell growth at 10^-6 M by sulforhodamine B assay; conditions: read-out: Activity
# PC-3 = test: Growth inhibition of human PC3 cells assessed as cell growth at 10^-6 M by sulforhodamine B assay; conditions: read-out: Activity
# LOX IMVI = test: Growth inhibition of human LOXIMVI cells assessed as cell growth at 10^-7 M by sulforhodamine B assay; conditions: read-out: Activity
# UACC-62 = test: Growth inhibition of human UACC62 cells by sulforhodamine B assay
# NCI-H226 [7] = test: Growth inhibition of human NCI-H226 cells assessed as cell growth at 10^-6 M by sulforhodamine B assay; conditions: read-out: Activity
# RPMI-8226 = test: Growth inhibition of human RPMI8226 cells assessed as cell growth at 10^-7 M by sulforhodamine B assay; conditions: read-out: Activity
# SR = test: Growth inhibition of human SR cells assessed as cell growth at 10^-7 M by sulforhodamine B assay; conditions: read-out: Activity
# HL-60(TB) = test: Growth inhibition of human HL-60(TB) cells by sulforhodamine B assay
# MOLT-4 [8] = test: Growth inhibition of human MOLT4 cells assessed as cell growth at 10^-7 M by sulforhodamine B assay; conditions: read-out: Activity
# MOLT-4 [9] = test: Growth inhibition of human MOLT4 cells assessed as cell growth at 10^-8 M by sulforhodamine B assay; conditions: read-out: Activity
# MDA-MB-468 [10] = test: Growth inhibition of human MDA-MB-468 cells by sulforhodamine B assay
# M14 = test: Growth inhibition of human M14 cells assessed as cell growth at 10^-4 M by sulforhodamine B assay; conditions: read-out: Activity
# CCRF-CEM [11] = test: Growth inhibition of human CCRF-CEM cells assessed as cell growth at 10^-4 M by sulforhodamine B assay; conditions: read-out: Activity
# SNB-19 = test: Growth inhibition of human SNB19 cells assessed as cell growth at 10^-8 M by sulforhodamine B assay; conditions: read-out: Activity
# SK-MEL-5 = test: Growth inhibition of human SK-MEL-5 cells assessed as cell growth at 10^-7 M by sulforhodamine B assay; conditions: read-out: Activity
# NCI-H322M = test: Growth inhibition of human NCI-H322M cells assessed as cell growth at 10^-6 M by sulforhodamine B assay; conditions: read-out: Activity
# UO-31 = test: Growth inhibition of human UO31 cells assessed as cell growth at 10^-6 M by sulforhodamine B assay; conditions: read-out: Activity
# SNB-75 = test: Growth inhibition of human SNB75 cells assessed as cell growth at 10^-6 M by sulforhodamine B assay; conditions: read-out: Activity
# SW-620 [12] = test: Growth inhibition of human SW620 cells assessed as cell growth at 10^-4 M by sulforhodamine B assay; conditions: read-out: Activity
# [13] = read-out: LC50 (the source's name)
# [14] = read-out: pLC50 (the source's name) (converted)
smiles,measurement,setting,value
C/C=C(/C)C(=O)O[C@@H]1CC(C)(C)C[C@H]2C3=CC[C@@H]4[C@@]5(C)CCC(=O)C(C)(C)[C@@H]5CC[C@@]4(C)[C@]3(C)CC[C@@]12C(=O)O [LANTADENE A],GI50,HT-29; read-out: GI50,4.32 µM
same,LC50 (50% cell kill),HT-29; read-out: LC50,> 100 µM
same,TGI,HT-29; read-out: TGI,> 100 µM
same,GI50,HT-29; read-out: pGI50 (converted),4.37 µM
same,LC50 (50% cell kill),HT-29; read-out: pLC50 (converted),> 100 µM
same,TGI,HT-29; read-out: pTGI (converted),> 100 µM
same,growth at 100 µM,KM12,20%
same,growth at 0.01 µM,OVCAR-3,109%
same,growth at 0.01 µM,NCI-H23,100%
same,growth at 100 µM,A498,-20%
same,growth at 100 µM,MDA-MB-468 [1],1%
same,growth at 0.01 µM,SN12C,97%
same,growth at 1 µM,CCRF-CEM [2],92%
same,growth at 100 µM,SF-268,34%
same,growth at 100 µM,NCI-H522,-4%
same,growth at 0.01 µM,HCT-116,94%
same,growth at 100 µM,K562,28%
same,growth at 100 µM,NCI-H226 [3],20%
same,growth at 1 µM,RXF 393,81%
same,growth at 1 µM,OVCAR-5,98%
same,growth at 1 µM,[4],91%
same,growth at 0.01 µM,SW-620 [5],100%
same,growth at 0.1 µM,[6],104%
same,growth at 1 µM,HCT-15,87%
same,growth at 1 µM,PC-3,68%
same,growth at 0.1 µM,LOX IMVI,95%
same,GI50,UACC-62; read-out: GI50,1.73 µM
same,CC50,UACC-62; [13],43 µM
same,TGI,UACC-62; read-out: TGI,6.56 µM
same,GI50,UACC-62; read-out: pGI50 (converted),1.74 µM
same,CC50,UACC-62; [14],42.7 µM
same,TGI,UACC-62; read-out: pTGI (converted),6.61 µM
same,growth at 1 µM,NCI-H226 [7],87%
same,growth at 0.1 µM,RPMI-8226,91%
same,growth at 0.1 µM,SR,79%
same,GI50,HL-60(TB); read-out: GI50,1.87 µM
same,CC50,HL-60(TB); [13],> 100 µM
same,TGI,HL-60(TB); read-out: TGI,5.26 µM
same,GI50,HL-60(TB); read-out: pGI50 (converted),1.86 µM
same,CC50,HL-60(TB); [14],> 100 µM
same,TGI,HL-60(TB); read-out: pTGI (converted),5.25 µM
same,growth at 0.1 µM,MOLT-4 [8],102%
same,growth at 0.01 µM,MOLT-4 [9],104%
same,GI50,MDA-MB-468 [10]; read-out: GI50,2.58 µM
same,CC50,MDA-MB-468 [10]; [13],> 100 µM
same,TGI,MDA-MB-468 [10]; read-out: TGI,> 100 µM
same,GI50,MDA-MB-468 [10]; read-out: pGI50 (converted),2.57 µM
same,CC50,MDA-MB-468 [10]; [14],> 100 µM
same,TGI,MDA-MB-468 [10]; read-out: pTGI (converted),> 100 µM
same,growth at 100 µM,M14,23%
same,growth at 100 µM,CCRF-CEM [11],9%
same,growth at 0.01 µM,SNB-19,93%
same,growth at 0.1 µM,SK-MEL-5,83%
same,growth at 1 µM,NCI-H322M,90%
same,growth at 1 µM,UO-31,87%
same,growth at 1 µM,SNB-75,88%
same,growth at 100 µM,SW-620 [12],22%
CC(C)=CC(=O)O[C@@H]1CC(C)(C)C[C@H]2C3=CC[C@@H]4[C@@]5(C)CC[C@H](O)C(C)(C)[C@@H]5CC[C@@]4(C)[C@]3(C)CC[C@@]12C(=O)O [Reduced Lantadene B],GI50,HT-29; read-out: GI50,4.24 µM
same,LC50 (50% cell kill),HT-29; read-out: LC50,> 100 µM
same,TGI,HT-29; read-out: TGI,27.1 µM
same,GI50,HT-29; read-out: pGI50 (converted),4.27 µM
same,LC50 (50% cell kill),HT-29; read-out: pLC50 (converted),> 100 µM
same,TGI,HT-29; read-out: pTGI (converted),26.9 µM
same,growth at 100 µM,KM12,-47%
same,growth at 0.01 µM,OVCAR-3,104%
same,growth at 0.01 µM,NCI-H23,95%
same,growth at 100 µM,A498,-90%
same,growth at 100 µM,MDA-MB-468 [1],-77%
same,growth at 0.01 µM,SN12C,101%
same,growth at 1 µM,CCRF-CEM [2],75%
same,growth at 100 µM,SF-268,-51%
same,growth at 100 µM,NCI-H522,-64%
same,growth at 0.01 µM,HCT-116,99%
same,growth at 100 µM,K562,-1%
same,growth at 100 µM,NCI-H226 [3],-56%
same,growth at 1 µM,RXF 393,93%
same,growth at 1 µM,OVCAR-5,106%
same,growth at 1 µM,[4],92%
same,growth at 0.01 µM,SW-620 [5],102%
same,growth at 0.1 µM,[6],99%
same,growth at 1 µM,HCT-15,58%
same,growth at 1 µM,PC-3,67%
same,growth at 0.1 µM,LOX IMVI,93%
same,GI50,UACC-62; read-out: GI50,1.95 µM
same,CC50,UACC-62; [13],25.2 µM
same,TGI,UACC-62; read-out: TGI,5.48 µM
same,GI50,UACC-62; read-out: pGI50 (converted),1.95 µM
same,CC50,UACC-62; [14],25.1 µM
same,TGI,UACC-62; read-out: pTGI (converted),5.5 µM
same,growth at 1 µM,NCI-H226 [7],86%
same,growth at 0.1 µM,RPMI-8226,92%
same,growth at 0.1 µM,SR,104%
same,GI50,HL-60(TB); read-out: GI50,2.52 µM
same,CC50,HL-60(TB); [13],86.3 µM
same,TGI,HL-60(TB); read-out: TGI,6.86 µM
same,GI50,HL-60(TB); read-out: pGI50 (converted),2.51 µM
same,CC50,HL-60(TB); [14],87.1 µM
same,TGI,HL-60(TB); read-out: pTGI (converted),6.92 µM
same,growth at 0.1 µM,MOLT-4 [8],94%
same,growth at 0.01 µM,MOLT-4 [9],106%
same,GI50,MDA-MB-468 [10]; read-out: GI50,4.17 µM
same,CC50,MDA-MB-468 [10]; [13],57.1 µM
same,TGI,MDA-MB-468 [10]; read-out: TGI,20.2 µM
same,GI50,MDA-MB-468 [10]; read-out: pGI50 (converted),4.17 µM
same,CC50,MDA-MB-468 [10]; [14],57.5 µM
same,TGI,MDA-MB-468 [10]; read-out: pTGI (converted),20 µM
same,growth at 100 µM,M14,-69%
same,growth at 100 µM,CCRF-CEM [11],-16%
same,growth at 0.01 µM,SNB-19,93%
same,growth at 0.1 µM,SK-MEL-5,91%
same,growth at 1 µM,NCI-H322M,94%
same,growth at 1 µM,UO-31,89%
same,growth at 1 µM,SNB-75,85%
same,growth at 100 µM,SW-620 [12],-15%
